Tests used:
[1] = tested on: HCV genotype 1b (Con1) replicon in HUH-7 cells; assay: HCV replicon luciferase reporter assay, genotype 1b; format: cell-based; conditions: Hepatitis C virus, Huh-7, 72 h, HCV genotype 1b replicon luciferase, 3 days incubation, read-out: LE_1b (EC50, range)
Outline: (§1)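 Replicon inhibition for both genotypes was measured as Renilla luciferase signal (EnduRen, 7.5 μM final, 2 h) after 3-day, 37° C exposure of replicon-bearing HUH-7 cells in 4% FCS DMEM, 0.5% DMSO. The 1b construct carries S1179I; the 1a H77 construct carries P1496L and S2204I. Twenty-point, 3-fold dilutions were fitted four-parametrically for EC50, and CC50 was taken from multiplexed Cell Titer-Blue.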

[2] = tested on: HCV genotype 1a (H77 strain) replicon in HUH-7 cells; assay: HCV replicon luciferase reporter assay, genotype 1a; format: cell-based; conditions: Hepatitis C virus, Huh-7, 72 h, HCV genotype 1a replicon luciferase, 3 days incubation, read-out: LE_1a (EC50, range)
Outline: as §1

SMILES | EC50 [1] | EC50 [2]
COc1ccc2c(O[C@@H]3C[C@H]4C(=O)N[C@]5(C(=O)NS(=O)(=O)C6(C)CC6)C[C@H]5/C=C\CC[C@@H](C)C[C@@H](C)[C@H](NC(=O)OC(C)(C)C)C(=O)N4C3)nc(-c3ccc(OC(C)C)nc3)cc2c1 [Compound 5223, tert-butyl ((2R,6S,7R,9R,13aS,14aR,16aS,Z)-2-((3-(6-isopropoxypyridin-3-yl)-6-methoxyisoquinolin-1-yl)oxy)-7,9-dimethyl-14a-(((1-methylcyclopropyl)sulfonyl)carbamoyl)-5,16-dioxo-1,2,3,5,6,7,8,9,10,11,13a,14,14a,15,16,16a-hexadecahydrocyclopropa[e]pyrrolo[1,2-a][1,4]diazacyclopentadecin-6-yl)carbamate] | < 5.46 nM | < 5.46 nM
COc1ccc2c(O[C@@H]3C[C@H]4C(=O)N[C@]5(C(=O)NS(=O)(=O)C6(C)CC6)C[C@H]5/C=C\CC[C@H](C)C[C@@H](C)[C@H](NC(=O)OC(C)(C)C(F)(F)F)C(=O)N4C3)nc(-c3ccc(OC(C)C)nc3)cc2c1 [Compound 5224, 1,1,1-trifluoro-2-methylpropan-2-yl((2R,6S,7R,9S,13aS,14aR,16aS,Z)-2-((3-(6-isopropoxypyridin-3-yl)-6-methoxyisoquinolin-1-yl)oxy)-7,9-dimethyl-14a-(((1-methylcyclopropyl)sulfonyl)carbamoyl)-5,16-dioxo-1,2,3,5,6,7,8,9,10,11,13a,14,14a,15,16,16a-hexadecahydrocyclopropa[e]pyrrolo[1,2-a][1,4]diazacyclopentadecin-6-yl)carbamate] | 4.82 to 103 nM | 4.82 to 103 nM
COc1ccc2c(O[C@@H]3C[C@H]4C(=O)N[C@]5(C(=O)NS(=O)(=O)C6(C)CC6)C[C@H]5/C=C\CC[C@@H](C)C[C@@H](C)[C@H](NC(=O)OC(C)(C)C(F)(F)F)C(=O)N4C3)nc(-c3ccc(OC(C)C)nc3)cc2c1 [Compound 5225, 1,1,1-trifluoro-2-methylpropan-2-yl((2R,6S,7R,9R,13aS,14aR,16aS,Z)-2-((3-(6-isopropoxypyridin-3-yl)-6-methoxyisoquinolin-1-yl)oxy)-7,9-dimethyl-14a-(((1-methylcyclopropyl)sulfonyl)carbamoyl)-5,16-dioxo-1,2,3,5,6,7,8,9,10,11,13a,14,14a,15,16,16a-hexadecahydrocyclopropa[e]pyrrolo[1,2-a][1,4]diazacyclopentadecin-6-yl)carbamate] | < 5.46 nM | < 5.46 nM
[2H]C([2H])([2H])C(OC(=O)N[C@@H]1C(=O)N2C[C@H](Oc3nc(-c4ccc(OC(C)C)nc4)cc4cc(OC)ccc34)C[C@H]2C(=O)N[C@]2(C(=O)NS(=O)(=O)C3(C)CC3)C[C@H]2/C=C\CC[C@H](C)C[C@H]1C)(C([2H])([2H])[2H])C(F)(F)F [Compound 5226, 1,1,1,3,3,3-hexadeutero-2-(trifluoromethyl)propan-2-yl((2R,6S,7R,9S,13aS,14aR,16aS,Z)-2-((3-(6-isopropoxypyridin-3-yl)-6-methoxyisoquinolin-1-yl)oxy)-7,9-dimethyl-14a-(((1-methylcyclopropyl)sulfonyl)carbamoyl)-5,16-dioxo-1,2,3,5,6,7,8,9,10,11,13a,14,14a,15,16,16a-hexadecahydrocyclopropa[e]pyrrolo[1,2-a][1,4]diazacyclopentadecin-6-yl)carbamate] | 4.82 to 103 nM | 4.82 to 103 nM
[2H]C([2H])([2H])C(OC(=O)N[C@@H]1C(=O)N2C[C@H](Oc3nc(-c4ccc(OC(C)C)nc4)cc4cc(OC)ccc34)C[C@H]2C(=O)N[C@]2(C(=O)NS(=O)(=O)C3(C)CC3)C[C@H]2/C=C\CC[C@@H](C)C[C@H]1C)(C([2H])([2H])[2H])C(F)(F)F [Compound 5227, 1,1,1,3,3,3-hexadeutero-2-(trifluoromethyl)propan-2-yl((2R,6S,7R,9R,13aS,14aR,16aS,Z)-2-((3-(6-isopropoxypyridin-3-yl)-6-methoxyisoquinolin-1-yl)oxy)-7,9-dimethyl-14a-(((1-methylcyclopropyl)sulfonyl)carbamoyl)-5,16-dioxo-1,2,3,5,6,7,8,9,10,11,13a,14,14a,15,16,16a-hexadecahydrocyclopropa[e]pyrrolo[1,2-a][1,4]diazacyclopentadecin-6-yl)carbamate] | < 5.46 nM | < 5.46 nM
COc1ccc2c(O[C@@H]3C[C@H]4C(=O)N[C@]5(C(=O)NS(=O)(=O)C6(C)CC6)C[C@H]5/C=C\CC[C@H](C)C[C@@H](C)[C@H](NC(=O)OC5C[C@@H]6C[C@@H]6C5)C(=O)N4C3)nc(-c3ccc(OC(C)C)nc3)cc2c1 (stereo partly drawn) [Compound 5228, (1R,3r,5S)-bicyclo[3.1.0]hexan-3-yl((2R,6S,7R,9S,13aS,14aR,16aS,Z)-2-((3-(6-isopropoxypyridin-3-yl)-6-methoxyisoquinolin-1-yl)oxy)-7,9-dimethyl-14a-(((1-methylcyclopropyl)sulfonyl)carbamoyl)-5,16-dioxo-1,2,3,5,6,7,8,9,10,11,13a,14,14a,15,16,16a-hexadecahydrocyclopropa[e]pyrrolo[1,2-a][1,4]diazacyclopentadecin-6-yl)carbamate] | < 5.46 nM | 4.82 to 103 nM
COc1ccc2c(O[C@@H]3C[C@H]4C(=O)N[C@]5(C(=O)NS(=O)(=O)C6(C)CC6)C[C@H]5/C=C\CC[C@@H](C)C[C@@H](C)[C@H](NC(=O)OC5C[C@@H]6C[C@@H]6C5)C(=O)N4C3)nc(-c3ccc(OC(C)C)nc3)cc2c1 (stereo partly drawn) [Compound 5229, (1R,3r,5S)-bicyclo[3.1.0]hexan-3-yl((2R,6S,7R,9R,13aS,14aR,16aS,Z)-2-((3-(6-isopropoxypyridin-3-yl)-6-methoxyisoquinolin-1-yl)oxy)-7,9-dimethyl-14a-(((1-methylcyclopropyl)sulfonyl)carbamoyl)-5,16-dioxo-1,2,3,5,6,7,8,9,10,11,13a,14,14a,15,16,16a-hexadecahydrocyclopropa[e]pyrrolo[1,2-a][1,4]diazacyclopentadecin-6-yl)carbamate] | < 5.46 nM | < 5.46 nM
COc1ccc2c(O[C@@H]3C[C@H]4C(=O)N[C@]5(C(=O)NS(=O)(=O)C6(C)CC6)C[C@H]5/C=C\CC[C@H](C)C[C@@H](C)[C@H](NC(=O)NC(C)(C)C)C(=O)N4C3)nc(-c3ccc(OC(C)C)nc3)cc2c1 [Compound 5230, (2R,6S,7R,9S,13aS,14aR,16aS,Z)-6-(3-(tert-butyl)ureido)-2-((3-(6-isopropoxypyridin-3-yl)-6-methoxyisoquinolin-1-yl)oxy)-7,9-dimethyl-N-((1-methylcyclopropyl)sulfonyl)-5,16-dioxo-1,2,3,5,6,7,8,9,10,11,13a,14,14a,15,16,16a-hexadecahydrocyclopropa[e]pyrrolo[1,2-a][1,4]diazacyclopentadecine-14a-carboxamide] | < 5.46 nM | 4.82 to 103 nM
COc1ccc2c(O[C@@H]3C[C@H]4C(=O)N[C@]5(C(=O)NS(=O)(=O)C6(C)CC6)C[C@H]5/C=C\CC[C@@H](C)C[C@@H](C)[C@H](NC(=O)NC(C)(C)C)C(=O)N4C3)nc(-c3ccc(OC(C)C)nc3)cc2c1 [Compound 5231, (2R,6S,7R,9R,13aS,14aR,16aS,Z)-6-(3-(tert-butyl)ureido)-2-((3-(6-isopropoxypyridin-3-yl)-6-methoxyisoquinolin-1-yl)oxy)-7,9-dimethyl-N-((1-methylcyclopropyl)sulfonyl)-5,16-dioxo-1,2,3,5,6,7,8,9,10,11,13a,14,14a,15,16,16a-hexadecahydrocyclopropa[e]pyrrolo[1,2-a][1,4]diazacyclopentadecine-14a-carboxamide] | < 5.46 nM | < 5.46 nM
COc1ccc2c(O[C@@H]3C[C@H]4C(=O)N[C@]5(C(=O)NS(=O)(=O)C6(C)CC6)C[C@H]5/C=C\CC[C@@H](C)C[C@@H](C)[C@H](NC(=O)OC(C)(C)C)C(=O)N4C3)nc(-c3ccc4c(c3)OCCO4)cc2c1 [Compound 5233, tert-butyl ((2R,6S,7R,9R,13aS,14aR,16aS,Z)-2-((3-(2,3-dihydrobenzo[b][1,4]dioxin-6-yl)-6-methoxyisoquinolin-1-yl)oxy)-7,9-dimethyl-14a-(((1-methylcyclopropyl)sulfonyl)carbamoyl)-5,16-dioxo-1,2,3,5,6,7,8,9,10,11,13a,14,14a,15,16,16a-hexadecahydrocyclopropa[e]pyrrolo[1,2-a][1,4]diazacyclopentadecin-6-yl)carbamate] | < 5.46 nM | < 5.46 nM
COc1ccc2c(O[C@@H]3C[C@H]4C(=O)N[C@]5(C(=O)NS(=O)(=O)C6(C)CC6)C[C@H]5/C=C\CC[C@@H](C)C[C@@H](C)[C@H](NC(=O)OC(C)(C)C(F)(F)F)C(=O)N4C3)nc(-c3ccc4c(c3)OCCO4)cc2c1 [Compound 5235, 1,1,1-trifluoro-2-methylpropan-2-yl((2R,6S,7R,9R,13aS,14aR,16aS,Z)-2-((3-(2,3-dihydrobenzo[b][1,4]dioxin-6-yl)-6-methoxyisoquinolin-1-yl)oxy)-7,9-dimethyl-14a-(((1-methylcyclopropyl)sulfonyl)carbamoyl)-5,16-dioxo-1,2,3,5,6,7,8,9,10,11,13a,14,14a,15,16,16a-hexadecahydrocyclopropa[e]pyrrolo[1,2-a][1,4]diazacyclopentadecin-6-yl)carbamate] | < 5.46 nM | < 5.46 nM
COc1ccc2c(O[C@@H]3C[C@H]4C(=O)N[C@]5(C(=O)NS(=O)(=O)C6(C)CC6)C[C@H]5/C=C\CC[C@H](C)C[C@@H](C)[C@H](NC(=O)OC(C)(C)C(C)(F)F)C(=O)N4C3)nc(-c3ccc4c(c3)OCCO4)cc2c1 [Compound 5236, 3,3-difluoro-2-methylbutan-2-yl((2R,6S,7R,9S,13aS,14aR,16aS,Z)-2-((3-(2,3-dihydrobenzo[b][1,4]dioxin-6-yl)-6-methoxyisoquinolin-1-yl)oxy)-7,9-dimethyl-14a-(((1-methylcyclopropyl)sulfonyl)carbamoyl)-5,16-dioxo-1,2,3,5,6,7,8,9,10,11,13a,14,14a,15,16,16a-hexadecahydrocyclopropa[e]pyrrolo[1,2-a][1,4]diazacyclopentadecin-6-yl)carbamate] | < 5.46 nM | < 5.46 nM

Reference: US9499550B2 (BRISTOL-MYERS SQUIBB COMPANY, priority 2012, dated 2016)
